Results: patent publication US20190208782A1, “PROCESSING COMPOSITION FOR C[…] WEEDS” (Arch Chemicals, Inc., priority 2018, published 2019)

Tested on: sago pondweed (Stuckenia pectinata)
Test: Native plant selectivity screening in aquaria, sago pondweed (Example 6)
Format: in vivo
Details: 50-3200 ug/L
Experimental: Materials and Methods: The study was conducted in an indoor aquaria facility. Elodea (Elodea canadensis) was obtained from cultures. Two apical tips approximately 10 cm long were planted into each of 48, plastic containers (16 oz. plastic cups). The containers were filled with potting soil and amended with 2 g/L Osmocote® fertilizer 19-6-12. A layer of sand was placed on top of the sediment in each container to prevent sediment re-suspension in the aquaria. Two containers of potted elodea were placed into each of 24 aquaria measuring 11.5 in×11.5 in×24 in. Additionally, sago pondweed (Stuckenia pectinata) tubers were obtained. The tubers were floated in shallow containers filled with water until new sprouts began to grow.
Once sprouted, two tubers were planted into 16 oz containers in a similar fashion as elodea. Two containers of potted sago pondweed were placed into each of the 24 aquaria, so that each aquarium had 4 potted plants (2 pots of each species). […]
At four weeks after treatment (WAT), plants were, harvested, sorted to aboveground biomass, dried in a forced air oven at 50 C for at least 48 h, and weighed for biomass determination (g/DW/aquaria). Differences between treatments were analyzed using an ANOVA, and if treatment differences were detected; means were separated using a Tukey's All-Pairwise comparison test. […]

CCCCCCC(C)OC(=O)COc1nc(F)c(Cl)c(N)c1Cl (centres unmarked) [Fluroxypyr ester, [(4-amino-3,5-dichloro-6-fluoro-2-pyridinyl)oxy]acetic acid, 1-methylheptyl ester]
adverse effects on sago pondweed (four weeks of static exposure): did not exhibit any adverse effects | visible herbicide symptoms on sago pondweed (throughout the study, static exposure): no visible herbicide symptoms
